# Assay results taken from publication PMC6268294, “Synthesis of Chalcones with Anticancer Activities” (Molecules, 2012).
# Where two headings read alike, the source gives them in different places.
# Experiments:
# [1] = system: human lung adenocarcinoma cell line A549; assay: MTT cell viability assay, A549; format: cell-based; details: 24 h treatment
# Protocol: (§1) A549, PC3, MCF-7, HT-29, WRL68 and MCF-7 cells were obtained from the ATTC (Rockville, MD, USA) and grown in RPMI-1640 medium, 10% fetal bovine serum (FBS) and 1% pen-strep, in humidified conditions at 5% CO2 and 37 °C. The different cell lines mentioned above were used to determine the inhibitory effects of compounds on cell growth using the MTT assay. This colorimetric assay is based on the conversion of the yellow tetrazolium bromide (MTT) to a purple formazan derivative by mitochondrial succinate dehydrogenase in viable cells. Cells were seeded in 96-well plate and incubated for 24 h at 37 °C with 5% CO2 saturation. After incubation, the cells were treated with different concentration of compounds and incubated for another 24 h. After 24 h of drug treatment, 20 µL of MTT solution at 5 mg/mL was added and incubated for 4 h. Dimethyl sulfoxide (DMSO) in volume of 100 µL is added into each well to dissolve the purple formazan formed. The colorimetric assay is measured and recorded at absorbance of 570 nm.
# [2] = system: human prostate cancer cell line PC3; assay: MTT cell viability assay, PC3; format: cell-based; details: 24 h treatment
# Protocol: as §1
# [3] = system: human breast adenocarcinoma cell line MCF-7; assay: MTT cell viability assay, MCF-7; format: cell-based; details: MCF7, 24 h treatment
# Protocol: as §1
# [4] = system: human adenocarcinoma cell line HT-29 (colorectal cancer); assay: MTT cell viability assay, HT-29; format: cell-based; details: 24 h treatment
# Protocol: as §1
# [5] = system: human normal liver cell line WRL-68; assay: MTT cell viability assay, WRL68; format: cell-based; details: 24 h treatment
# Protocol: as §1
# [6] = system: MCF-7 (breast), A549 (lung), PC3 (prostate), HT-29 (colorectal) and WRL68 (liver); assay: MTT assay, summary over all five cell lines; format: cell-based, human; details: for IC50: Homo sapiens, all five cell lines, read-out: IC50 in all cell lines
# Protocol: as §1
# MCF-7 cells = assay: Multiparametric high content screening (HCS) cytotoxicity/apoptosis assay; format: cell-based, human; details: for cell (membrane) permeability / cytochrome c release / mitochondrial membrane potential / total nuclear intensity (Hoechst 33342 nuclear chromatin staining) / cell loss: MCF-7, compounds 2-6 µg/mL; for cell (membrane) permeability / cytochrome c release / mitochondrial membrane potential / total nuclear intensity (Hoechst 33342 nuclear chromatin staining): tamoxifen 0.04 µg/mL, vs control; for cell loss: data not shown; for apoptosis in MCF-7 cells: shown by multiparameter cytotoxicity assay and caspase-3/7, -8, -9 activities, p < 0.05
# [7] = system: caspase-3/7 in MCF-7 cells; assay: Caspase-Glo-3/7 activity; format: cell-based, human; details: MCF-7, 24 h, highest concentration (6 µg/mL for 1); control 30,140 RLU
# Protocol: (§2) Due to the observation of significant cytotoxicity of selected compounds towards MCF-7 cells, the following analyses were done on them only. Cells were treated with compound 1 (1A- 3 µg/mL; 1B- 6 µg/mL), 23 (23A- 3 µg/mL; 23B- 6 µg/mL), 25 (25A- 2 µg/mL; 25B- 4 µg/mL) and 5 (5A- 3 µg/mL; 5B- 6 µg/mL).
# (§3) Activity of cellular caspases was measured using the Caspase-Glo-9, Caspase-Glo-3/7 and Caspase-Glo-8 assay reagents (Promega), according to the manufacturer's instructions. The assays provide a luminogenic caspase-3/caspase-7 or caspase-8 or caspase-9 substrate, respectively, in a buffer system optimized for caspase activity measurement in cell lysates. The luciferase signal generated is proportional to the amount of caspase activity present. MCF-7 cells have no caspase-3 activity due to functional deletion of the CASP-3 gene. Therefore, the activity measured in this test is that of caspase-7. Briefly, cells were plated in opaque 96-well plates in triplicate and treated with […]. After 24 h treatment with compounds 1, 23, 25 and 5 as mentioned before, the assay reagents were added to the plates at room temperature and incubated for 60 min, and the luminescence was measured using a plate reader. All assays were done in triplicate, and means ± SD were calculated for each condition.
# ROS in MCF-7 cells = assay: Intracellular ROS level (DCFDA); format: cell-based, human; details: MCF-7, 24 h, high concentration (6 µg/mL; 25: 4 µg/mL), vs untreated control, p < 0.05
# Protocol: as §2
# The production of ROS was estimated by fluorescence using the redox-sensitive fluorescent probe DCFDA (Sigma). The oxidation of DCFDA by ROS converts the molecule to 2′,7′-dichlorodihydrofluorescein (DCF), which is highly fluorescent. Thus, ROS production by stimulated cells causes an increase in the fluorescence signal over time. ROS assays were performed as previously described (13). Briefly, the MCF-7 cells were seeded in 96-well plates (5 × 10^4 cells/well) and allowed to attach for 24 h. After 24 h treatment with compounds 1, 23, 25 and 5 as mentioned before, the cells were washed three times with PBS and incubated for 60 min with […] DCFDA at room temperature. Again the wells were washed with PBS. Fresh PBS was added (100 μL/well) and DCF fluorescence was detected using a Tecan Infinite M200 fluorescence microplate reader at excitation and emission wavelengths of 485 and 528 nm, respectively. The fluorescence intensity unit of treatments was compared with control.
# caspase-8 in MCF-7 cells = assay: Caspase-Glo-8 activity; format: cell-based, human; details: MCF-7, 24 h, highest concentrations (6 µg/mL; 25: 4 µg/mL); control printed 50892 RLU; p < 0.05
# Protocol: as §2, §3
SMILES,IC50 [1],IC50 [2],IC50 [3],IC50 [4],IC50 [5],IC50 ([6]; MTT),"cytotoxic effect in words ([6]; all cell lines, MTT)",cell (membrane) permeability (MCF-7 cells),cytochrome c release (MCF-7 cells),mitochondrial membrane potential (MCF-7 cells),total nuclear intensity (Hoechst 33342 nuclear chromatin staining) (MCF-7 cells),cell loss (MCF-7 cells),apoptosis in MCF-7 cells (MCF-7 cells),caspase-3/7 activity at highest concentration [7],cytotoxic effect in words [6],ROS increase at high concentration (ROS in MCF-7 cells),melting point,caspase-8 activity at highest concentration (caspase-8 in MCF-7 cells)
"O=C(/C=C/c1ccccc1)c1ccccc1 [Compound 1, 1,3-Diphenylpropenone]",16.8 ± 1.08 µg/mL,9.11 ± 0.9 µg/mL,6.88 ± 0.219 µg/mL,10.1 ± 1.01 µg/mL,10.6 ± 0.89 µg/mL,< 20 µg/mL,high cytotoxicity,increased cell permeability,cytochrome c release from mitochondria,loss of mitochondrial membrane potential,increased total nuclear intensity,statistically significant cell loss,capable in eliciting apoptosis,210430 RLU,,,,
"O=C(/C=C/c1ccccc1Cl)c1ccccc1 [Compound 5, 3-(2-Chlorophenyl)-1-phenylpropenone]",19.9 ± 1.66 µg/mL,13.8 ± 1.2 µg/mL,7.99 ± 0.81 µg/mL,13.2 ± 1.2 µg/mL,11.5 ± 1.1 µg/mL,< 20 µg/mL,,increased cell permeability,cytochrome c release from mitochondria,loss of mitochondrial membrane potential,increased total nuclear intensity,statistically significant cell loss,capable in eliciting apoptosis,,high cytotoxicity,2.7 fold,53 to 54 °C,
"Cc1ccc(C(=O)/C=C/c2ccccc2O)cc1 [Compound 23, 3-(2-Hydroxyphenyl)-1-p-tolylpropenone]",16.8 ± 1.76 µg/mL,9.49 ± 0.7 µg/mL,6.87 ± 1.2 µg/mL,13 ± 0.54 µg/mL,9.53 ± 1.5 µg/mL,< 20 µg/mL,,increased cell permeability,cytochrome c release from mitochondria,loss of mitochondrial membrane potential,increased total nuclear intensity,statistically significant cell loss,capable in eliciting apoptosis,,high cytotoxicity,,165 to 167 °C,"18,342 RLU"
